Measured values taken from patent US20070191357A1, “METHODS OF USING POTASSIUM CHANNEL INHIBITING COMPOUNDS” (priority 2005, published 2007).

Tested on: not listed separately
Assay: Solubility as noted during the Kv1.3 patch-clamp experiments
Details: bath solution; 0.1% BSA used to overcome it

For `CN=C(NS(=O)(=O)c1ccc(Cl)cc1)N1C[C@H](c2ccccc2)C(c2ccc(Cl)cc2)=N1` [example compound 1], the “Solubility (in words)” value was “low solubility”.

Target: T1, human potassium Kv1.3 (Homo sapiens, UniProt P22001)
T1 construct: expressed in transfected cells; host or cells: stably transfected cells grown in serum-free medium for CHO cells (CHO inferred from the medium)
Assay: Potassium Kv1.3 autopatch electrophysiology method, percentage charge inhibition
Format: cell-based
Details: concentration not given (compounds made up at 1 μM and 10 μM)
Description: 2. Electrophysiological Examination of Test Compounds on the Kv1.3-Mediated Potassium Current (Potassium Kv1.3 Autopatch Electrophysiology Method)
In another set of experiments, the inhibition of the potassium Kv1.3 channel has been measured.
Cells stably transfected with cDNA for human potassium Kv1.3 (in pcDNA3.1) were grown in Ex-cell 302 serum-free medium for CHO cells, supplemented with 10 μl/ml [100×] glutamine, 500 μg/ml G418, and 1% HT supplement (50×, hypoxanthine and thymidine). The cells were cultured in 350 ml spinner (Techne) spun at 80 rpm, at 37° C. in a water-saturated 5% CO2 incubator. The day of the preparation an aliquot of cells was 5 times diluted in fresh media and counted with a glass counting chamber type Malassez. Then six tubes of 10 ml were prepared at 6×10^6 c/ml. The tubes were then placed at 4° C. until their use.
The external bathing solution contained (in mM): 150 NaCl, 10 KCl, 1 MgCl2, 3 CaCl2 and 10 HEPES. The pH was adjusted to 7.4 with NaOH. Patch pipettes were filled with a pipette solution of composition (in mM): 100 K-Gluconate, 20 KCl, 1 MgCl2, 1 CaCl2, 10 HEPES, 11 EGTA, 5 ATP-Na2 and 2 Glutathione. The pH was adjusted to 7.2 with KOH. Using fresh 100 ml bathing solution, 0.05% BSA re-suspension solution (0.05 g BSA/100 ml bather) was prepared.
Compounds were dissolved in DMSO (100%) and made up in the external bather at concentrations of 1 μM and 10 μM. All experiments were conducted at room temperature.
Two tubes of cell suspension were centrifuged at 1000 rpm for 4 minutes at room temperature. 10 ml of supernatant was carefully aspirated and discarded from each tube, with care being taken not to aspirate the cell pellet sitting at the bottom of the tube. The cell pellet of each tube was broken-up by gentle manual agitation of the tube. 600 μl of re-suspension solution was added to the cell pellet, followed by a gentle trituration step to re-suspend the cells. Once re-suspended, 600 μl of solution per tube was removed from each tube, such that 1.2 ml of cell suspension was obtained in total and placed in a temperature-controlled cell hotel, set at either 4° C. or dew point. Cells were maintained in suspension in the hotel through gentle trituration every 30 s via an automatic cell suspension system.
Harvard borosilicate capillary glass (GC1507F-10, […], supplied in 100 mm lengths) was cut down to 24 mm lengths using a Dagen capillary cutter. Short (13 mm) patch pipettes were pulled using a 2-stage pull on a specially adapted DMZ pipette puller (Zeitz Instruments). Patch pipettes typically have resistances of 2.3-3.5 MΩ. As the patch pipettes were pulled in batches, pipette tip resistance was measured every tenth pipette using a Tenma meter in order to maintain consistency of tip resistance. Pulled pipettes were stored in Petri dish before filling.
Each pipette was fully back-filled (from the tip to the end) using the internal pipette solution and the pipette tip was dipped in Sigmacote (Sigma). The pipette was then precisely inserted, tip first, into a pipette holder using a custom-made, pneumatic insertion rig, with the blunt end of the patch pipette sitting proud of the bottom of the pipette holder.
Whole cell patch-clamp recordings (WCRs) were made using the AP2, which incorporates an EPC9 or EPC10 amplifier (HEKA, Germany) under control of Pulse software (v8.54 or v8.76, HEKA, Germany), the patch plate contact fixture, a Gilson autosampler for cell delivery (the cell sampler), a Gilson autosampler for drug preparation (the auto-sampler), the drug application system (DAS), a feedback-controlled suction device for enabling high resistance GΩ seals to be formed for the whole cell recording mode to be attained, a cell re-suspension system, a temperature-controlled cell hotel, a vacuum line and associated pumps for applying suction and for draining the patch plate wells of bather.
Under control of the AP2 software, automated patch-clamping was initiated. […]

T1 sequence (P22001 whole entry): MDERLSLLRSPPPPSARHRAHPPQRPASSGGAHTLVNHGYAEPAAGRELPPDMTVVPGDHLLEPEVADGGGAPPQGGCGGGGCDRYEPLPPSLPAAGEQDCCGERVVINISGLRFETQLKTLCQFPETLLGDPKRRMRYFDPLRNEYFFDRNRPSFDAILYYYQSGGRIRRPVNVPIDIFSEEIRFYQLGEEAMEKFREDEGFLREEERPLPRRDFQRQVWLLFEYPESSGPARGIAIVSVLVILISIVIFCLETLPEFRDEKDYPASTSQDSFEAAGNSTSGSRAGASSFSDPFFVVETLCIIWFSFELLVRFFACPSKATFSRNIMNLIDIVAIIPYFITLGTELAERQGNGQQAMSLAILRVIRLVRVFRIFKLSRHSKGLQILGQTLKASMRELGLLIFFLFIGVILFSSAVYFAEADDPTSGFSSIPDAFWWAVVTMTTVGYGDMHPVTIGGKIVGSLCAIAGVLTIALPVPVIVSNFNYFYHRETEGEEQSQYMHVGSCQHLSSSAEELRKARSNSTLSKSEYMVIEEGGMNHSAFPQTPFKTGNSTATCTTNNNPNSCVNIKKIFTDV

Compared with `CNC(=NS(=O)(=O)c1ccc(Cl)cc1)N1CC(c2cccnc2)C(c2ccc(Cl)cc2)=N1` (stereo not shown), `CON/C(=N\S(=O)(=O)c1ccc(Cl)cc1)N1C[C@H](c2cccc(F)c2)C(c2ccc(Cl)cc2)=N1` is lower in “Inhibition of the Potassium Kv1.3 channel (%)” value (“Inhibition … (%)” below): 88.7% for the first, 76.0% for the second.

First: CNC(=NS(=O)(=O)N(C)C)N1CC(c2cccc(F)c2)C(c2ccc(Cl)cc2)=N1 (stereo not shown)
Second: CNC(=NS(=O)(=O)N1CCC(O)CC1)N1CC(c2ccccc2)C(c2ccc(Cl)cc2)=N1 (stereo not shown)
The “Inhibition … (%)” value of the first is lower: 88.1% for the first, 92.8% for the second.

First: CN(C)CCNC(=NS(=O)(=O)N1CCCCC1)N1CC(c2ccccc2)C(c2ccc(Cl)cc2)=N1 (stereo not shown)
Second: O=S(=O)(N=C(NCCF)N1CC(c2ccccc2)C(c2ccc(Cl)cc2)=N1)c1ccc(Cl)cc1 (stereo not shown)
The “Inhibition … (%)” value of the first is lower: 58.4% for the first, 77.1% for the second.

Compared with `CN1CCC(CNC(=NS(=O)(=O)c2ccc(Cl)cc2)N2CC(c3ccccc3)C(c3ccc(Cl)cc3)=N2)C1` (stereo not shown), `CN[C@@H](Cc1c[nH]c2ccccc12)C(=O)N1CC(c2ccccc2)C(c2ccc(Cl)cc2)=N1` (stereo partly shown) is lower in “Inhibition … (%)” value: 96.2% for the first, 87.8% for the second.

First: CCN(CC)C(=O)c1cn(-c2ccc(Cl)cc2)c(-c2ccc(Cl)cc2Cl)n1
Second: Cc1c(C(=O)NN2CCCCC2)nn(-c2ccc(Cl)cc2Cl)c1-c1ccc(Cl)cc1 [Rimonabant, reference compound]
The “Inhibition … (%)” value of the first is lower: 76.2% for the first, 89.2% for the second.

First: CC1=Nc2ccc(Cl)cc2S(=O)(=O)N1 [Diazoxide, reference compound]
Second: CC1(NC2=NS(=O)(=O)c3sc(Cl)cc3N2)CC1 [NN414, reference compound]
The “Inhibition … (%)” value of the first is higher: 46.5% for the first, 45.1% for the second.

First: CCCCCCC(C)(C)c1cc(OC)c([C@H]2C=C(CO)[C@H]3C[C@@H]2C3(C)C)c(OC)c1 [HU-308, reference compound]
Second: Cc1c(C(=O)c2cccc3ccccc23)c2cccc3c2n1[C@H](CN1CCOCC1)CO3 [R(+)-WIN55212-2, reference compound]
The “Inhibition … (%)” value of the first is lower: 81.2% for the first, 81.5% for the second.

For `CCc1c(C(=O)NN2CCCCC2)nn(-c2ccc(Cl)cc2Cl)c1-c1ccc(Br)cc1` [SR-147778, reference compound], the “Inhibition … (%)” value was 63.7%.

Target: T1, human potassium Kv1.3
Assay: Electrophysiological examination (whole-cell patch-clamp) of the Kv1.3-mediated potassium current in CHO cells
Format: cell-based
Details: 10 μM example compound 1, time course
Description: 1. Electrophysiological Examination of Test Compounds on the KV1.3-Mediated Potassium Current
cDNA coding for the human potassium Kv1.3 was cloned into a standard vector. A C-terminal epitope-tag was introduced via PCR. The plasmid was sequenced and subsequently introduced into cells and a clonal cell line was established. Expression of protein was analyzed by means of immunofluorescence using antibodies directed against the epitope-tag.
Experiments were performed in CHO cells stably expressing the potassium Kv1.3 potassium channel. […]
Patch-clamp experiments were performed in the voltage-clamp mode (Hamill et al., 1981) and whole-cell currents were recorded. Patch pipettes were pulled from borosilicate glass tubes. Current signals were amplified and digitized by an EPC patch-clamp amplifier (HEKA-Electronics, Lambrecht, Germany), stored and analyzed on a personal computer using the Pulse/Pulsefit software (HEKA, Lambrecht, Germany). Experiments were conducted at room temperature.
For investigating effects and reversibility of a test compound on the Kv1.3 potassium channel, CHO cells were clamped at a holding potential (HP) of −80 mV. The following stimulation protocol (scheme 1) was applied successively and the induced currents have been recorded: […]
The application protocol of the test compound is depicted in scheme 2. […] Nonspecific current reduction was calculated and serves for correction procedures during data analysis. […] Effect of the test compound was analyzed between stimulus nos. […]
The appropriate experiment was selected from the data tree in the Pulse software. […] The leak current amplitude during the prepulse to −90 mV and the peak current amplitude of the test-pulse to +40 mV were measured by placing the cursors on the oscilloscope screen (FIG. 3). […]
FIG. 1: Kv1.3-mediated potassium current. […] The two cursors on the right indicate the range of the test pulse, where the peak current amplitude was evaluated (205-230 ms of the test pulse to +40 mV). The two cursors on the left indicate the area where the mean leak current was evaluated (100-140 ms of the test pulse to −90 mV). […]

With `CN=C(NS(=O)(=O)c1ccc(Cl)cc1)N1C[C@H](c2ccccc2)C(c2ccc(Cl)cc2)=N1` [example compound 1] the “Effect on current amplitude (in words)” value was “significant current reduction”.

Same assay, conditions: in the presence of 0.1% BSA; fit of equation (4)

In the case of `CN=C(NS(=O)(=O)c1ccc(Cl)cc1)N1C[C@H](c2ccccc2)C(c2ccc(Cl)cc2)=N1` [example compound 1], the “Hill coefficient nH” value is reported as 0.72±0.22.

Same assay, conditions: over the tested concentrations

In the case of `CN=C(NS(=O)(=O)c1ccc(Cl)cc1)N1C[C@H](c2ccccc2)C(c2ccc(Cl)cc2)=N1` [example compound 1], the “Effect on outward Kv1.3-mediated current amplitudes (in words)” value is reported as “reduced in a concentration-dependent manner”.
